From paper PMC6028563, “Probing Substituents in the 1- and 3-Position: Tetrahydropyrazino-Annelated Water-Soluble Xanthine Derivatives as Multi-Target Drugs With Potent Adenosine Receptor Antagonistic Activity” (Frontiers in Chemistry, 2018) come the findings set out here.

Test [1] has as its target T1, human A2A AR (Homo sapiens, UniProt P29274).
T1 construct: expressed in transfected cells; host or cells: CHO cells
The test can be described thus: Radioligand binding assay at human A2A AR vs. [^3H]MSX-2. As to conditions: CHO cell membranes, n = 3, read-out: Ki ± SEM, A2A vs. [^3H]MSX-2. In a few lines:
(§1)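 Affinity values derive from radioligand displacement on membrane preparations: native rat tissue (cortex for A1, striatum for A2A) or CHO cells recombinantly expressing human A1, A2A, A2B or A3 ARs.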

Test [2] has as its target T2, human A3 AR (Homo sapiens, UniProt P0DMS8).
T2 construct: expressed in transfected cells; host or cells: CHO cells
T2 sequence (P0DMS8 1-318): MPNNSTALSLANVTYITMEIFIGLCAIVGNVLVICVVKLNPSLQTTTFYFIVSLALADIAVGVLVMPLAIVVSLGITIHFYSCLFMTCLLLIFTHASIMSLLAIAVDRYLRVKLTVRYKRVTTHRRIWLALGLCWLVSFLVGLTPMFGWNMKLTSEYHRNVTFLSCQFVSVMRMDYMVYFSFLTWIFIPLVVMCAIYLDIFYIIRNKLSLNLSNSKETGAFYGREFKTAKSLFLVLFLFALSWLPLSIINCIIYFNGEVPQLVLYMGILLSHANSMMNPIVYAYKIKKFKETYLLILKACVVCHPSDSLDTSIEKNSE
The test can be described thus: Radioligand binding assay at human A3 AR vs. [^3H]PSB-11. The conditions noted are these: for Ki: CHO cell membranes, n = 2 (n = 3 where marked a), read-out: Ki ± SEM, A3 vs. [^3H]PSB-11; for inhibition at 10 µM: at 10,000 nM, read-out: % inhibition of radioligand binding at indicated concentration, A3 vs. [^3H]PSB-11. In a few lines:
as §1

Test [3] concerns the target T3, recombinant human MAO-A (Homo sapiens, UniProt P21397).
T3 construct: purchased Sigma-Aldrich M7316; host or cells: baculovirus-infected insect cells
T3 sequence (P21397 1-527): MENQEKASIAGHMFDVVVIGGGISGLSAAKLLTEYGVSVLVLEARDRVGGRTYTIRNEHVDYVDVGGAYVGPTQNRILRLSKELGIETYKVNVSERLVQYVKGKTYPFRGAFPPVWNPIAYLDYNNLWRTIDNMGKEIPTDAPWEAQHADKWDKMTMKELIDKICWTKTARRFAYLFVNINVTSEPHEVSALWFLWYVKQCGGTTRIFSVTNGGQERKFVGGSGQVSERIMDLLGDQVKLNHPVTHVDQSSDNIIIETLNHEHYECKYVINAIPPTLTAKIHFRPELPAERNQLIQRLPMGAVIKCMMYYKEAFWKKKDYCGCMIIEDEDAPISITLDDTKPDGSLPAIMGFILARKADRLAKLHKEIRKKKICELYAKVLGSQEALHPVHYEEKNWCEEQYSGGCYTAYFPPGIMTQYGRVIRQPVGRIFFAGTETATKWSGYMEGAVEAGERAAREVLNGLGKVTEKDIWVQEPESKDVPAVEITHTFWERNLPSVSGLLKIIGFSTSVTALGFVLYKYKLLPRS
The experiment in a line: Monoamine oxidase assay (Amplex Red), MAO-A. As to conditions: for inhibition at 10 µM: at 10,000 nM, read-out: % inhibition at indicated concentration, Human MAO-A; for IC50: n = 3, read-out: IC50 ± SEM, Human MAO-A. The class given is biochemical. In a few lines:
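Inhibition was measured with an Amplex Red monoamine oxidase assay, using human MAO-A and MAO-B produced recombinantly in baculovirus-infected insect cells. For rat MAO-B, liver mitochondria-enriched fractions from male Sprague Dawley rats served as enzyme source.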

T1 sequence (P29274 whole entry): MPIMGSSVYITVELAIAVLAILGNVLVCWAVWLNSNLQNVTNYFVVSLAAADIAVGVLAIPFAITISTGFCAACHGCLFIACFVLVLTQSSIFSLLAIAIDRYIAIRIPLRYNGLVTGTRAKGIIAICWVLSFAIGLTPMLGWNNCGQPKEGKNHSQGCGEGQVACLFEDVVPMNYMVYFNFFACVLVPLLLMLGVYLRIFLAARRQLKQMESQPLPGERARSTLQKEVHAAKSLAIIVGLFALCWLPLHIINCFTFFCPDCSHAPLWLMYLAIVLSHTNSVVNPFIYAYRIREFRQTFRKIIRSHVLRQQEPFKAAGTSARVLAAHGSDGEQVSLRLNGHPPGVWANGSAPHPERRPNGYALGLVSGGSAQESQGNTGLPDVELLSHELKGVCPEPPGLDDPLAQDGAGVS

In the case of `CCn1c(=O)c2c(nc3n2CCN(Cc2cc(Cl)ccc2Cl)C3)n(C)c1=O` [Compound 14j, 8-(2,5-dichlorobenzyl)-3-ethyl-1-dimethyl-6,7,8,9-tetrahydropyrazino[2,1-f]purine-2,4(1H,3H)-dione], the Ki in test [1] turned out to be 906 ± 73 nM. Further, in test [2], the Ki is greater than 10 µM and the inhibition at 10 µM came to 42%. Also, in test [3], the inhibition at 10 µM amounted to 23% and the IC50 is greater than 10 µM.

Turning to `CCn1c(=O)c2c(nc3n2CCN(Cc2cccc(C(F)(F)F)c2F)C3)n(C)c1=O` [Compound 14l, 3-ethyl-8-(2-fluoro-3-(trifluoromethyl)benzyl)-1-methyl-6,7,8,9-tetrahydropyrazino[2,1-f]purine-2,4(1H,3H)-dione], the Ki in test [1] came out at 2020 nM. Further, in test [2], the Ki is greater than 10 µM and the inhibition at 10 µM was 29%. For the same compound, in test [3], the inhibition at 10 µM was 8% and the IC50 was greater than 10 µM.

As to `CCn1c(=O)c2c(nc3n2CCN(Cc2cc(C(F)(F)F)ccc2Cl)C3)n(C)c1=O` [Compound 14m, 8-(2-chloro-5-(trifluoromethyl)benzyl)-3-ethyl-1-methyl-6,7,8,9-tetrahydropyrazino[2,1-f]purine-2,4(1H,3H)-dione], the Ki in test [1] is 881 ± 96 nM. In test [2], the Ki was greater than 10 µM and the inhibition at 10 µM was found to be 35%. Further, in test [3], the inhibition at 10 µM was found to be 9% and the IC50 was greater than 10 µM.

With `CCn1c(=O)c2c(nc3n2CCN(Cc2cc(Br)ccc2F)C3)n(C)c1=O` [Compound 14o, 8-(5-bromo-2-fluorobenzyl)-3-ethyl-1-methyl-6,7,8,9-tetrahydropyrazino[2,1-f]purine-2,4(1H,3H)-dione], in test [1], the inhibition constant (Ki) is 1700 nM. Also, in test [2], the Ki was greater than 10 µM and the inhibition at 10 µM turned out to be 39%. Also, in test [3], the inhibition at 10 µM amounted to 15% and the half-maximal inhibitory concentration (IC50) is greater than 10 µM.

Regarding `CCn1c(=O)c2c(nc3n2CCN(Cc2cc(C(F)(F)F)ccc2F)C3)n(CC)c1=O` [Compound 15j, 1,3-diethyl-8-(2-fluoro-5-(trifluoromethyl)benzyl)-6,7,8,9-tetrahydropyrazino[2,1-f]purine-2,4(1H,3H)-dione], the Ki in test [1] is 781 ± 68 nM; in test [2] it was greater than 10 µM. Also, the figures for the inhibition at 10 µM in test [2] and in test [3] were 25% and 7%, respectively. For the same compound, in test [3], the IC50 was greater than 10 µM.

With `CCn1c(=O)c2c(nc3n2CCN(Cc2ccc(F)c(Br)c2)C3)n(CC)c1=O` [Compound 15k, 8-(3-bromo-4-fluorobenzyl)-1,3-diethyl-6,7,8,9-tetrahydropyrazino[2,1-f]purine-2,4(1H,3H)-dione], the Ki in test [1] came to 756 ± 271 nM; in test [2], 7.19 µM. Moreover, the inhibition at 10 µM in test [3] was -10%. Further, the IC50 in test [3] was greater than 10 µM.

With `CCn1c(=O)c2c(nc3n2CCN(Cc2cc(Br)ccc2F)C3)n(CC)c1=O` [Compound 15l, 8-(5-bromo-2-fluorobenzyl)-1,3-diethyl-6,7,8,9-tetrahydropyrazino[2,1-f]purine-2,4(1H,3H)-dione], the Ki in test [1] is 598 ± 92 nM; in test [2] it was 13.3 µM. Moreover, the inhibition at 10 µM in test [3] amounted to 8%. In addition, the IC50 in test [3] is greater than 10 µM.

With `CCn1c(=O)c2c(nc3n2CCN(Cc2cc(Cl)cc(Cl)c2)C3)n(CC)c1=O` [Compound 15m, 8-(3,5-dichlorobenzyl)-1,3-diethyl-6,7,8,9-tetrahydropyrazino[2,1-f]purine-2,4(1H,3H)-dione], the Ki in test [1] is 631 ± 122 nM; in test [2] it was 4.72 µM. Moreover, in test [3], the inhibition at 10 µM stood at 1%. Also, the IC50 in test [3] was greater than 10 µM.

As for `CCn1c(=O)c2c(nc3n2CCN(Cc2cc(C(F)(F)F)ccc2Cl)C3)n(CC)c1=O` [Compound 15n, 8-(2-chloro-5-(trifluoromethyl)benzyl)-1,3-diethyl-6,7,8,9-tetrahydropyrazino[2,1-f]purine-2,4(1H,3H)-dione], the Ki in test [1] stood at 613 ± 34 nM. In test [2], the Ki is greater than 10 µM and the inhibition at 10 µM is 38%. Further, in test [3], the inhibition at 10 µM is -4% and the IC50 was greater than 10 µM.

For the compound `CCn1c(=O)c2c(nc3n2CCN(Cc2cc(F)c(F)c(F)c2)C3)n(CC)c1=O` [Compound 15r, 1,3-diethyl-8-(3,4,5-trifluorobenzyl)-6,7,8,9-tetrahydropyrazino[2,1-f]purine-2,4(1H,3H)-dione], the Ki in test [1] is 4110 nM; in test [2], greater than 10 µM. The inhibition at 10 µM in test [2] was 14%; in test [3] it was 7%. The IC50 in test [3] is greater than 10 µM.

Consider `CCn1c(=O)n(C)c(=O)c2c1nc1n2CCN(Cc2ccc(Cl)c(Cl)c2)C1` [Compound 16a, 8-(3,4-dichlorobenzyl)-1-ethyl-3-methyl-6,7,8,9-tetrahydropyrazino[2,1-f]purine-2,4(1H,3H)-dione], for which the Ki in test [1] is 1620 nM. In test [2], the Ki is greater than 10 µM and the inhibition at 10 µM stood at 19%. Moreover, in test [3], the inhibition at 10 µM was 6% and the IC50 was greater than 10 µM.

Take `CCn1c(=O)n(C)c(=O)c2c1nc1n2CCN(Cc2cc(Cl)cc(Cl)c2)C1` [Compound 16b, 8-(3,5-dichlorobenzyl)-1-ethyl-3-methyl-6,7,8,9-tetrahydropyrazino[2,1-f]purine-2,4(1H,3H)-dione]: the Ki is 2230 nM in test [1] and greater than 10 µM in test [2]. Besides, the values for the inhibition at 10 µM in test [2] and in test [3] were 23% and 8%, respectively. In addition, the IC50 in test [3] is greater than 10 µM.

As for `Cn1c(=O)c2c(nc3n2CCN(Cc2ccc(Cl)c(Cl)c2)C3)n(C2CC2)c1=O` [Compound 17, 8-(3,4-dichlorobenzyl)-1-cyclopropyl-3-methyl-6,7,8,9-tetrahydropyrazino[2,1-f]purine-2,4(1H,3H)-dione], in test [2], the Ki was greater than 10 µM and the inhibition at 10 µM was found to be 26%. In addition, in test [3], the inhibition at 10 µM amounted to 7% and the IC50 was greater than 10 µM.

Take `C#CCn1c(=O)c2c(nc3n2CCN(Cc2ccc(Cl)c(Cl)c2)C3)n(C)c1=O` [Compound 19a, 8-(3,4-dichlorobenzyl)-1-methyl-3-propargyl-6,7,8,9-tetrahydropyrazino[2,1-f]purine-2,4(1H,3H)-dione]: the Ki was 1580 nM in test [1] and 5.63 µM in test [2]. In test [3], the inhibition at 10 µM came to 12%. Moreover, the IC50 in test [3] is greater than 10 µM.

As for `C#CCn1c(=O)c2c(nc3n2CCN(Cc2cc(C(F)(F)F)ccc2Cl)C3)n(C)c1=O` [Compound 19b, 8-(2-chloro-5-(trifluoromethyl)benzyl)-1-methyl-3-propargyl-6,7,8,9-tetrahydropyrazino[2,1-f]purine-2,4(1H,3H)-dione], the Ki in test [1] was 712 ± 129 nM; in test [2], greater than 10 µM. The inhibition at 10 µM in test [2] came to 25%; in test [3], 5%. Further, the IC50 in test [3] is greater than 10 µM.

On to `C#CCn1c(=O)c2c(nc3n2CCN(c2cccc(OC)c2)C3)n(CC)c1=O` [Compound 20c, 1-ethyl-8-(3-methoxyphenyl)-3-propargyl-6,7,8,9-tetrahydropyrazino[2,1-f]purine-2,4(1H,3H)-dione], for which the Ki in test [1] came out at 289 ± 85 nM. For the same compound, the Ki in test [2] is 7.16 µM. In test [3], the inhibition at 10 µM was 6% and the IC50 is greater than 10 µM.

What is called Ki is the dissociation constant of the complex between target and ligand, obtained from inhibition or displacement. What is called IC50 is the concentration that gives 50% inhibition.
